The values below come from patent US9023803B2, “Cancer therapy based on tumor associated antigens derived from cyclin D1” (Immatics Biotechnologies GmbH, priority 2010, dated 2015).

The subject of one assay is patients. As to the kind of experiment: Clinical study of vaccine IMA901 with or without prior cyclophosphamide. It counts as in vivo, human. An excerpt:
(§1) Some patients received a prior TKI therapy with sunitinib or sorafenib, others a prior cytokine therapy with interferon or interleukin.
Both patient groups were followed up for progression-free survival (PFS) and overall survival (OS).

For another assay, the system named is regulatory T cells. Particulars: low-dose cyclophosphamide 300 mg/m^2 single infusion before vaccination.
Source text: Absolute counts are shown in (A), percent change from baseline is shown in (B).
as §1

A further assay concerns HLA-A*02. Kind of assay: HLA-restriction: binding to HLA-A*02. More on the design: species or system human.
A further assay deals with HLA-A*68. Kind of assay: HLA-restriction: binding to HLA-A*68. Also noted: species or system human.
Another assay relates to HLA-A*26. As to the kind of experiment: HLA-restriction: binding to HLA-A*26. Also noted: species or system human.
The test system of a further assay is cancer patients. Kind of assay: Prevaccination T cell responses in cancer patients. The format is in vivo, human. Particulars: certain cancer patients. The text has this: A further aspect of the invention then relates to the use of the peptide or combination according to the invention as a diagnostic tool in the diagnosis of cancer. Basically, the presence of the peptides or a combination thereof in the patient indicates cancer. […] Again, for the diagnosis, the peptides can be labeled. Furthermore, antibodies against the peptides (or combinations) can also be used. The diagnosis can be performed in vivo or in vitro.

In a further assay the test system is CTL. As to conditions: HLA-A2+ healthy donors, colon cancer and mantle cell lymphoma patients; CD40-activated B cells as APCs; cited from earlier work.
The test system of assay [1] is HLA-A*02 positive tumor cells endogenously expressing Cyclin D1. Particulars: allo-restricted T cells of HLA-A2-negative donors; cited from earlier work.
Another assay deals with HLA A*0201 (Homo sapiens, UniProt P04439, D140Y/D185E/D98H/E176V/E277Q/G131W/G231S/I119V/I121R/I166T/I218V/L300P/L318F/N151K/N90K/P208A/P217A/Q86G/Q94H/R138H/R169H/T345S). Kind of assay: ELISA-based HLA binding method (Sylvester-Hvid et al., 2002). A general note: ELISA stands for enzyme-linked immunosorbent assay.
The next assay concerns HLA class-II. Kind of assay: HLA-restriction: binding to HLA class-II. More on the design: species or system human.

On to `O=P1(N(CCCl)CCCl)NCCCO1` (stereo not drawn) [cyclophosphamide, reference compound], for which the “outcome of the treatment using the vaccine after prior low-dose cyclophosphamide” value in the assay on patients (single infusion 300 mg/m^2 before IMA901) is on record as “significantly improved”. For the same molecule, in the assay with regulatory T cells, the “number of regulatory T cells” value is given as “reduced”.

Take “ALLESSLRQA (listed as Homo sapiens) [CCN-007, cyclin D1-derived peptide, aa 253-262]”: the “binding to HLA-A*02” value in the assay with HLA-A*02 is “moderate binder”.

In the case of ETIPLTAEKL [CCN-006], in the assay with HLA-A*68, the “binding to HLA-A*68” value is reported as “seems to be a HLA-A*68 binder”.

For “EVFPLAMNY (listed as Homo sapiens) [CCN-004, cyclin D1-derived peptide, aa 76-84]”, the “binding to HLA-A*02” value in the assay with HLA-A*02 is reported as “practically no binding”. For the same molecule, in the assay with HLA-A*26, the “binding to HLA-A*26” value was “high binding”.

As to “LLGATCMFV (listed as Homo sapiens) [CCN-001, cyclin D1-derived peptide, aa 101-109]”, the prevaccination responses result in the assay with cancer patients is “found”. For the same molecule, the “generation of CTL specific for the epitope” value in the assay on CTL is given as “could be generated”. Moreover, in assay [1], the “lysis of Cyclin D1 expressing HLA-A*02 positive tumor cells by T cell clones recognizing the peptide” value is on record as “could lyze”. Further, the “survival of patients responding against CCN-001 versus non-CCN-001-responding patients” value with patients (all vaccinated patients) is “significant longer survival”. For the same molecule, the “favorable effect of T cell response against CCN-001 on survival” value in the assay with patients (patient group pretreated with cyclophosphamide) is reported as “even more evident”. Besides, the “binding to HLA A*0201” value with HLA A*0201 was “Good binding”.

“NPPSMVAAGSVVAAV (listed as Homo sapiens) [CCN-003, cyclin D1-derived peptide, aa 198-212]”: in the assay on HLA class-II, the HLA restriction result is recorded as “DRB1*0401 restricted” and the “binding to HLA class-II” value is given as “binds”.

With “YLSGANLNL (listed as Homo sapiens) [CEA-004]”, the prevaccination responses result with cancer patients is given as “found”.
